From patent publication US20240209027A1, “PEPTIDE AND PEPTIDE-CONTAINING COMPOSITION” (PeptiAID Inc.,, priority 2021, published 2024)
Starred links: 1 amine or outer side, 2 acyl side, 3 side chain; linkers in the order of their positions; H or OH if unused. Positions of bridges follow the written chain, without caps; N, C: chain ends. Non-standard residues stand in square brackets, D forms with d. Residues, ends and D or L forms follow the SMILES beside them. Ala(piperidin-4-yl) = O=C([C@H](CC1CCN([*:3])CC1)N[*:1])[*:2]; Phe(4-COOH) = N[C@@H](Cc1ccc(C(=O)O)cc1)C(=O)O; Phe(4-F) = N[C@@H](Cc1ccc(F)cc1)C(=O)O; NMeE = CN[C@@H](CCC(=O)O)C(=O)O; Cha = N[C@@H](CC1CCCCC1)C(=O)O; Cit = NC(=O)NCCC[C@H](N)C(=O)O; NMeNle = CCCC[C@H](NC)C(=O)O; Aib = CC(C)(N)C(=O)O

Key:
Assay type in all cases: cell-based
[1] = target: SARS-CoV-2-derived S protein, Alpha strain (Severe acute respiratory syndrome coronavirus 2, UniProt P0DTC2, DEL69-70/DEL144-144/N501Y/A570D/D614G/P681H/T716I/S982A/D1118H, form not given)
[2] = target: SARS-CoV-2-derived S protein, Beta strain (Severe acute respiratory syndrome coronavirus 2, UniProt P0DTC2, D80A/D215G/DEL241-243/K417N/E484K/N501Y/D614G/A701V, form not given)
[3] = target: SARS-CoV-2-derived S protein, Gamma strain (Severe acute respiratory syndrome coronavirus 2, UniProt P0DTC2, L18F/T20N/P26S/D138Y/R190S/K417T/E484K/N501Y/D614G/H655Y/T1027I/V1176F, form not given)
[4] = tested on: SARS-CoV-2-derived S protein, Delta strain; conditions: Table 3

| SMILES | Imax: % (at 500 nM) [1] [%] | Imax: % (at 500 nM) [2] [%] | Imax: % (at 500 nM) [3] [%] | IC50 [4] [nM] | Imax: % (at 500 nM) [4] [%] |
| --- | --- | --- | --- | --- | --- |
| CCCC[C@H]1C(=O)NC(C)(C)C(=O)N[C@@H](CC2CCCCC2)C(=O)N[C@@H](Cc2ccc(F)cc2)C(=O)NC(C)(C)C(=O)N[C@@H](Cc2ccc(O)cc2)C(=O)N[C@@H](Cc2ccc(O)cc2)C(=O)N[C@@H](Cc2ccc(C(=O)O)cc2)C(=O)N[C@@H](CC2CCNCC2)C(=O)N[C@@H](CC2CCCCC2)C(=O)N[C@H](C(=O)N[C@H](CCC(=O)O)C(N)=O)CSCC(=O)N(C)[C@@H](CCC(=O)O)C(=O)N1C [Peptide 5555_p020] ({CH2CO}-[NMeE][NMeNle][Aib][Cha][Phe(4-F)][Aib]YY[Phe(4-COOH)][Ala(piperidin-4-yl)][Cha]C[dE]-NH2; thioether N-12) | 100 | 100 | 100 |  |  |
| CCCC[C@H]1C(=O)NC(C)(C)C(=O)N[C@@H](CC2CCCCC2)C(=O)N[C@@H](Cc2ccc(F)cc2)C(=O)N[C@H](CC(=O)O)C(=O)N[C@@H](Cc2ccc(O)cc2)C(=O)N[C@@H](Cc2ccc(O)cc2)C(=O)N[C@@H](CCCNC(N)=O)C(=O)N[C@H](CCCCN)C(=O)N[C@@H](CC2CCCCC2)C(=O)N[C@H](C(=O)N[C@H](CCC(=O)O)C(=O)O)CSCC(=O)N(C)[C@@H](CCC(=O)O)C(=O)N1C [Peptide 5555_p028] ({CH2CO}-[NMeE][NMeNle][Aib][Cha][Phe(4-F)][dD]YY[Cit][dK][Cha]C[dE]-OH; thioether N-12) | 96 | 93 | 95 | […] | […] |
